From patent publication US9255101B2 (BIOPROJECT, priority 2012, dated 2016)

Assays:
human H4 receptor = human H4 receptor (Homo sapiens, UniProt Q9H3N8); assay: biochemical;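 also: radioligand displacement of a [3H]-labelled ligand from membranes of CHO cells stably expressing human H4 receptor, bound radioactivity counted on filters by liquid scintillation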
Sequence of human H4 receptor (Q9H3N8 whole entry): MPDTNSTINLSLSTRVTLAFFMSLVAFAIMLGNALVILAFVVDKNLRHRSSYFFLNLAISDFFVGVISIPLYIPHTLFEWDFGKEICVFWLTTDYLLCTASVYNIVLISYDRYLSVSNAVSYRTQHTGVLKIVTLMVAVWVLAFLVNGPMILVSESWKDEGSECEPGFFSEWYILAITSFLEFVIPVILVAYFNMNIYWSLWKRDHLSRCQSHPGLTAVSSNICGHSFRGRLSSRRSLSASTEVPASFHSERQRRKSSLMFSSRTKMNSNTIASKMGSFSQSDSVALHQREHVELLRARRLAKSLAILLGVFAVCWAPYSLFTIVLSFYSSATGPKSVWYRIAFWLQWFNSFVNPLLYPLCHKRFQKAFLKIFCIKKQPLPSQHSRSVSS

Structure (SMILES)	melting point	Ki (human H4 receptor)
Cc1c(-c2ccsc2)nc2n1CCc1ccccc1C2OC1CCN(C)CC1 (centres unmarked) [Example 148, 1-methyl-4-(1-methylpiperidin-4-yloxy)-2-thiophen-3-yl-9,10-dihydro-4H-3,10a-diaza-benzo[f]azulene]	74 °C	< 30 nM
CN1CCC(OC2c3cccc(-c4cccc(N)c4)c3CCn3cc(-c4ccccc4)nc32)CC1 (centres unmarked) [Example 242, 3-[4-(1-methylpiperidin-4-yloxy)-2-phenyl-9,10-dihydro-4H-3,10a-diaza-benzo[f]azulen-8-yl]-phenylamine]	120 °C	< 1000 nM
CC(C)c1c(-c2ccccc2)nc2n1CCc1ccccc1C2OC1CCN(C)CC1.O=C(O)C(=O)O.O=C(O)C(=O)O (centres unmarked) [Example 243, 1-isopropyl-4-(1-methylpiperidin-4-yloxy)-2-phenyl-9,10-dihydro-4H-3,10a-diaza-benzo[f]azulene dioxalate]	90 °C	< 300 nM
CN1CCC(OC2c3ccccc3CCn3c2nc(-c2ccccc2)c3-c2ccccc2)CC1 (centres unmarked) [Example 252, 4-(1-methylpiperidin-4-yloxy)-1,2-diphenyl-9,10-dihydro-4H-3,10a-diaza-benzo[f]azulene]	90 °C	< 300 nM
Cc1c(C(=O)NCc2ccccc2)nc2n1CCc1ccccc1C2OC1CCN(C)CC1 (centres unmarked) [Example 222, 1-methyl-4-(1-methylpiperidin-4-yloxy)-9,10-dihydro-4H-3,10a-diaza-benzo[f]azulene-2-carboxylic acid benzylamide]	161 °C	–
CCCNC(=O)Nc1ccc(-c2cn3c(n2)C(OC2CCN(C)CC2)c2ccccc2CC3)cc1 (centres unmarked) [Example 60, 1-{4-[4-(1-methylpiperidin-4-yloxy)-9,10-dihydro-4H-3,10a-diaza-benzo[f]azulen-2-yl]-phenyl}-3-propyl-urea]	130 °C	< 300 nM
CN1CCC(OC2c3cccc(-c4ccc(F)cc4)c3CCn3cc(-c4ccccc4)nc32)CC1 (centres unmarked) [Example 240, 8-(4-fluorophenyl)-4-(1-methylpiperidin-4-yloxy)-2-phenyl-9,10-dihydro-4H-3,10a-diaza-benzo[f]azulene]	95 °C	< 300 nM
CN1CCC(OC2c3cccc(Br)c3CCn3cc(-c4ccccc4)nc32)CC1 (centres unmarked) [Example 231, 8-Bromo-4-(1-methyl-piperidin-4-yloxy)-2-phenyl-9,10-dihydro-4H-3,10a-diaza-benzo[f]azulene]	83 °C	< 300 nM
Cc1c(C(=O)N(C)Cc2ccccc2)nc2n1CCc1ccccc1C2OC1CCN(C)CC1 (centres unmarked) [Example 203, 1-methyl-4-(1-methylpiperidin-4-yloxy)-9,10-dihydro-4H-3,10a-diaza-benzo[f]azulene-2-carboxylic acid benzylmethylamide]	61 °C	< 1000 nM
CN1CCC(OC2c3ccccc3CCn3c2nc(-c2ccccc2)c3I)CC1 (centres unmarked) [Example 247, 1-iodo-4-(1-methylpiperidin-4-yloxy)-2-phenyl-9,10-dihydro-4H-3,10a-diaza-benzo[f]azulene]	153 °C	< 30 nM
CN1CCC(OC2c3ccccc3CCn3c2nc(I)c3C#N)CC1 (centres unmarked) [Example 221, 2-iodo-4-(1-methylpiperidin-4-yloxy)-9,10-dihydro-4H-3,10a-diaza-benzo[f]azulene-1-carbonitrile]	195 °C	< 1000 nM
CN1CCC(OC2c3cccc(Cc4ccccc4)c3CCn3cc(-c4ccccc4)nc32)CC1 (centres unmarked) [Example 233, 8-benzyl-4-(1-methylpiperidin-4-yloxy)-2-phenyl-9,10-dihydro-4H-3,10a-diaza-benzo[f]azulene]	66 °C	< 1000 nM
CCCc1c(-c2ccccc2)nc2n1CCc1ccccc1C2OC1CCN(C)CC1 (centres unmarked) [Example 238, 4-(1-methylpiperidin-4-yloxy)-2-phenyl-1-propyl-9,10-dihydro-4H-3,10a-diaza-benzo[f]azulene]	144 °C	< 300 nM
Cc1c(-c2ccc(Cl)cc2)nc2n1CCc1ccccc1C2OC1CCN(C)CC1 (centres unmarked) [Example 155, 2-(4-chlorophenyl)-1-methyl-4-(1-methylpiperidin-4-yloxy)-9,10-dihydro-4H-3,10a-diaza-benzo[f]azulene]	158 °C	< 30 nM
CN1CCC(OC2c3ccccc3CCn3cc(-c4ccc(NC(=O)C(C)(C)C)cc4)nc32)CC1 (centres unmarked) [Example 58, 2,2-dimethyl-N-{4-[4-(1-methylpiperidin-4-yloxy)-9,10-dihydro-4H-3,10a-diaza-benzo[f]azulen-2-yl]-phenyl}-propionamide]	120 °C	< 300 nM
Cc1c(I)nc2n1CCc1ccccc1C2OC1CCN(C)CC1 (centres unmarked) [Example 133, 2-iodo-1-methyl-4-(1-methylpiperidin-4-yloxy)-9,10-dihydro-4H-3,10a-diaza-benzo[f]azulene]	59 °C	< 300 nM
CN1CCC(OC2c3ccccc3CC(C)(C)n3cc(-c4ccccc4)nc32)CC1 (centres unmarked) [Example 230, 10,10-dimethyl-4-(1-methylpiperidin-4-yloxy)-2-phenyl-9,10-dihydro-4H-3,10a-diaza-benzo[f]azulene]	85 °C	< 1000 nM

Structure (SMILES)	melting point	Ki (human H4 receptor)
Cc1c(-c2ccc(F)cc2)nc2n1CCc1ccccc1C2OC1CCN(C)CC1 (centres unmarked) [Example 154, 2-(4-fluorophenyl)-1-methyl-4-(1-methylpiperidin-4-yloxy)-9,10-dihydro-4H-3,10a-diaza-benzo[f]azulene]	168 °C	< 30 nM
CN1CCC(OC2c3ccccc3CCn3c2nc(I)c3C(N)=O)CC1 (centres unmarked) [Example 253, 2-iodo-4-(1-methylpiperidin-4-yloxy)-9,10-dihydro-4H-3,10a-diaza-benzo[f]azulene-1-carboxylic acid amide]	85 °C	< 1000 nM
CSc1cccc2c1CCn1cc(-c3ccccc3)nc1C2OC1CCN(C)CC1 (centres unmarked) [Example 234, 4-(1-methylpiperidin-4-yloxy)-8-methylsulfanyl-2-phenyl-9,10-dihydro-4H-3,10a-diaza-benzo[f]azulene]	134 °C	< 1000 nM
CN1CCC(OC2c3ccccc3CCn3cc(I)nc32)CC1 (centres unmarked) [Example 2, 2-iodo-4-(1-methylpiperidin-4-yloxy)-9,10-dihydro-4H-3,10a-diaza-benzo[f]azulene]	126 °C	< 300 nM
CN1CCC(OC2c3ccccc3CCn3c2nc(-c2ccc(C(=O)OC(C)(C)C)cc2)c3C#N)CC1 (centres unmarked) [Example 224, 4-[1-cyano-4-(1-methylpiperidin-4-yloxy)-9,10-dihydro-4H-3,10a-diaza-benzo[f]azulen-2-yl]-benzoic acid tert-butyl ester]	95 °C	< 30 nM
CN1CCC(OC2c3cccc(OCc4ccccc4)c3CCn3cc(-c4ccccc4)nc32)CC1 (centres unmarked) [Example 248, 8-benzyloxy-4-(1-methylpiperidin-4-yloxy)-2-phenyl-9,10-dihydro-4H-3,10a-diaza-benzo[f]azulene]	68 °C	< 1000 nM
CNc1cccc2c1CCn1cc(-c3ccccc3)nc1C2OC1CCN(C)CC1 (centres unmarked) [Example 244, methyl-[4-(1-methylpiperidin-4-yloxy)-2-phenyl-9,10-dihydro-4H-3,10a-diaza-benzo[f]azulen-8-yl]-amine]	189 °C	< 1000 nM
COc1ccccc1-c1nc2n(c1C)CCc1ccccc1C2OC1CCN(C)CC1 (centres unmarked) [Example 149, 2-(2-methoxyphenyl)-1-methyl-4-(1-methylpiperidin-4-yloxy)-9,10-dihydro-4H-3,10a-diaza-benzo[f]azulene]	139 °C	< 300 nM
COc1cccc(-c2cccc3c2CCn2cc(-c4ccccc4)nc2C3OC2CCN(C)CC2)c1 (centres unmarked) [Example 241, 8-(3-methoxyphenyl)-4-(1-methylpiperidin-4-yloxy)-2-phenyl-9,10-dihydro-4H-3,10a-diaza-benzo[f]azulene]	93 °C	< 300 nM
CN1CC(COC2c3ccccc3CCn3cc(I)nc32)C1 (centres unmarked) [Example 7, 2-Iodo-4-(1-methylazetidin-3-ylmethoxy)-9,10-dihydro-4H-3,10a-diaza-benzo[f]azulene]	100 °C	< 1000 nM
Cc1cccc2c1CCn1cc(-c3ccccc3)nc1C2OC1CCN(C)CC1 (centres unmarked) [Example 236, 8-methyl-4-(1-methylpiperidin-4-yloxy)-2-phenyl-9,10-dihydro-4H-3,10a-diaza-benzo[f]azulene]	71 °C	< 300 nM
CCCNC(=O)c1nc2n(c1C)CCc1ccccc1C2OC1CCN(C)CC1 (centres unmarked) [Example 205, 1-methyl-4-(1-methylpiperidin-4-yloxy)-9,10-dihydro-4H-3,10a-diaza-benzo[f]azulene-2-carboxylic acid propylamide]	60 °C	< 1000 nM
C=C(C)Cc1nc2n(c1CC(=C)C)CCc1ccccc1C2OC1CCN(C)CC1.O=C(O)C(=O)O.O=C(O)C(=O)O (centres unmarked) [Example 267, 1,2-bis-(2-methylallyl)-4-(1-methylpiperidin-4-yloxy)-9,10-dihydro-4H-3,10a-diaza-benzo[f]azulene dioxalate]	70 °C	< 300 nM
Cc1c(C(O)c2ccccc2)nc2n1CCc1ccccc1C2OC1CCN(C)CC1.O=CO (centres unmarked) [Example 201, [1-methyl-4-(1-methylpiperidin-4-yloxy)-9,10-dihydro-4H-3,10a-diaza-benzo[f]azulen-2-yl]phenylmethanol, formic acid salt]	85 °C	< 1000 nM
CN1CCC(OC2c3cccc(CCc4ccccc4)c3CCn3cc(-c4ccccc4)nc32)CC1 (centres unmarked) [Example 249, 4-(1-methyl-piperidin-4-yloxy)-8-phenethyl-2-phenyl-9,10-dihydro-4H-3,10a-diaza-benzo[f]azulene]	67 °C	< 1000 nM
COc1cccc2c1CCn1cc(-c3ccccc3)nc1C2OC1CCN(C)CC1 (centres unmarked) [Example 245, 8-methoxy-4-(1-methylpiperidin-4-yloxy)-2-phenyl-9,10-dihydro-4H-3,10a-diaza-benzo[f]azulene]	73 °C	< 1000 nM
